According to PubChem BioAssay AID1159585 (Gregory J. Crowther, 2016):

These molecules were tested against Calcium-dependent protein kinase 1 (Plasmodium falciparum (isolate 3D7)) (UniProt P62344) (assay: PfCDPK1 kinase inhibitors, biochemical, TCAMS library (AID 1159585;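 further: inhibitors leave more ATP so luminescence rises with inhibition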)). Conditions: recombinant PfCDPK1, Kinase-Glo ATP depletion luminescence; cut-off not given, nearly all actives have IC50 up to about 0.98 µM.
Chain of Calcium-dependent protein kinase 1 (Plasmodium falciparum (isolate 3D7)) (P62344 whole entry, looked up): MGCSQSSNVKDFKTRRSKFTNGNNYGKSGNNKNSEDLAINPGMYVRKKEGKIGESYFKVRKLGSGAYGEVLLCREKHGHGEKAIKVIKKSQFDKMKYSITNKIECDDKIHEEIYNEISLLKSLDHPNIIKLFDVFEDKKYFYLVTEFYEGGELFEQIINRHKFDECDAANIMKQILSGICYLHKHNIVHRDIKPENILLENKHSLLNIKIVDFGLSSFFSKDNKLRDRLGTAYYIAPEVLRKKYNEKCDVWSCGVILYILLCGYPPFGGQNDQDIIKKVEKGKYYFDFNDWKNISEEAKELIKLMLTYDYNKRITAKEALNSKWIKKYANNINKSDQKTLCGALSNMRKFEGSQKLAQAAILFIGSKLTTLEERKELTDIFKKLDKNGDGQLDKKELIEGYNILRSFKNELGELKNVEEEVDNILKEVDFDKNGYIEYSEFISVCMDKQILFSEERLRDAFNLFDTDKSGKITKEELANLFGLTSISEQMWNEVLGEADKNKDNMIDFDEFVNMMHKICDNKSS

IC50, active:
CN1CCC=C(C(=O)NCC(C)(C)c2nc(-c3ccc(Cl)c(O)c3)c(-c3ccncc3)[nH]2)C1 0.213 µM
Cc1ccc(Nc2nccc(Nc3ccc4c(c3)nc(Nc3cc(C(C)(C)C)on3)n4C)n2)cc1S(C)(=O)=O 0.242 µM
COc1ccc(-c2cnc3[nH]cc(-c4ccncc4)c3c2)cc1OC 0.39 µM
CS(=O)(=O)Nc1cccc(-c2cnc3[nH]cc(-c4ccc(CN)cc4)c3c2)c1 0.552 µM
Clc1ccc(-c2cnc3ccc(NCCc4cccnc4)nn23)cc1 0.371 µM
CCN(CC)CCCOc1ccc(Nc2nccc(-c3c(-c4cccc(NC(=O)c5c(F)cccc5F)c4)nn4ccccc34)n2)cc1F 0.429 µM
CC(C)(CNCc1ccc(Cl)cc1)c1nc(-c2ccc(Cl)c(O)c2)c(-c2ccncc2)[nH]1 0.257 µM
NCCNS(=O)(=O)c1ccc(-c2ccnc3[nH]c(-c4ccncc4)cc23)cc1 0.422 µM
COc1ccc(-c2cnn3ccc(Nc4cc(OC)c(OC)c(OC)c4)nc23)cc1OC 0.157 µM
CCNC(=O)Nc1ccc(-c2cnc(N)c(-c3nc4ccc(OC)cc4[nH]3)c2)cc1 0.145 µM
O=C(NCCN1CCCCC1)c1cccc(Nc2nccc(Nc3ccc(Oc4ccccc4)cc3)n2)c1 0.25 µM
COc1ccc(Nc2ncc(Cl)c(Nc3cccnc3C(N)=O)n2)cc1N1CCN(C)CC1 0.559 µM
N#CCc1ccc(Nc2nccc(Nc3ccc(Oc4ccccc4)cc3)n2)cc1 0.798 µM
CCn1c(-c2nonc2N)nc2c(-c3cccc(Cl)c3)ncc(OCCCNCCc3cnc[nH]3)c21 0.138 µM
CS(=O)(=O)CCNCc1cccc(-c2ccc3c(Nc4ccc(Oc5cccnc5)cc4)ccnc3c2)c1 0.966 µM
COc1ccc(-c2cnc3ccc(N4CCCC4)nn23)cc1OC 0.31 µM
